Test results from patent US20060003364A1, “GLUT1 transporters expressed in cancer cells” (XenoPort, Inc., priority 2004, published 2006).

molecular target: T1, GLUT1 (Homo sapiens, UniProt P11166); assay: not given; conditions: cited from earlier work
T1 sequence (P11166 1-492): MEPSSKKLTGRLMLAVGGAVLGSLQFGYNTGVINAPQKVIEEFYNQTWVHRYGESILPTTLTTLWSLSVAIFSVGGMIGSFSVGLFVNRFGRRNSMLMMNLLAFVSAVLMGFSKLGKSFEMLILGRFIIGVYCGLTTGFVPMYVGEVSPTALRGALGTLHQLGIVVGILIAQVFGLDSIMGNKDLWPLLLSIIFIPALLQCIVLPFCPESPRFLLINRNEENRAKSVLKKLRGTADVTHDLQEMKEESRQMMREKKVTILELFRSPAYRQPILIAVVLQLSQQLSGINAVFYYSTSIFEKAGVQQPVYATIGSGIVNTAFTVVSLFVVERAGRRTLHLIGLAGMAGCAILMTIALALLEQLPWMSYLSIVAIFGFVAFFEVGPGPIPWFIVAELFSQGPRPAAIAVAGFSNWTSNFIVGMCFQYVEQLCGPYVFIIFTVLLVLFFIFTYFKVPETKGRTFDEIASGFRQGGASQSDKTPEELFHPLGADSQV

Row | Molecule | Reported Affinity for GLUT1 [mM]
1 | O=C1O[C@H]([C@@H](O)CO)C(=O)C1=O [Dehydroascorbic Acid] | 0.8
2 | O=C[C@H](O)[C@@H](O)[C@@H](O)[C@H](O)CO [Galactose] | 4
3 | N[C@H]1C(O)O[C@H](CO)[C@@H](O)[C@@H]1O (stereo partly drawn) [Glucosamine] | 9
4 | (S)-methoxy-a-methyl-2-napthalene acetic acid amido galacto pyranose | 1
5 | Fluorodeoxyglucose | 4

molecular target: T1, GLUT1; assay: Radiolabel glucose uptake in Xenopus oocytes expressing GLUT1; assay type: cell-based; design: expressed in transfected cells; host or cells: Xenopus oocytes (cRNA injected); conditions: oocytes expressing GLUT1 vs noninjected controls; 3 minutes, ND96 buffer
Procedure: To assess transport function of a specific transporter protein, it can be desirable to clone the cDNA and express the protein in cells that have low endogenous transport activity. Human GLUT1 was cloned by PCR, fully sequenced, and subcloned into plasmids that can be used for expression in mammalian cells or Xenopus oocytes. […] For expression in Xenopus oocytes, in vitro GLUT1 cRNA was prepared and injected into defoliculated oocytes.
Oocytes expressing GLUT1 or control oocytes not expressing GLUT1 were incubated in an oocyte ringers (ND96) buffer ([…], 10 mM HemiNa HEPES, 2 mM KCl, 1 mM MgCl, 1.8 mM CaCl2) containing 0.5% bovine serum albumin and 3H-glucose (10^6 CPM/ml) for 3 minutes. Oocytes were washed and uptake of radiolabel quantified by scintillation counting.

Row | Molecule | 3H-glucose uptake
6 | O=C[C@H](O)[C@@H](O)[C@H](O)[C@H](O)CO [^3H-glucose] | higher levels of ^3H-glucose uptake than noninjected controls
